# In ChEMBL document CHEMBL3046347, “Synthesis and biological evaluation of novel curcumin analogues as anti-inflammatory, anti-cancer and anti-oxidant agents” (Med Chem Res, 2012):
# Assays:
# [1] = Antioxidant activity assessed as reduction of potassium ferricynide at 1 uM after 10 min by spectrophotometric analysis; assay type: functional; parameters: scale not given: the % may be the effect or the level left
# [2] = test system: Radical scavenging activity; assay: Antioxidant activity assessed as DPPH radical scavenging activity at 1 uM after 20 min by spectrophotometric analysis; assay type: functional
# ACHN = assay: Cytotoxicity against Homo sapiens (human) ACHN cells at 10 uM after 48 hr by propidium iodide-based fluorometric assay; assay type: functional; conditions: read-out: GI
# HCT-116 = assay: Cytotoxicity against Homo sapiens (human) HCT116 cells at 10 uM after 48 hr by propidium iodide-based fluorometric assay; assay type: functional; conditions: HCT-116, 48 h, read-out: GI
# Calu-1 = assay: Cytotoxicity against Homo sapiens (human) Calu1 cells at 10 uM after 48 hr by propidium iodide-based fluorometric assay; assay type: functional; conditions: Calu-1, 48 h, read-out: GI
# [3] = Cytotoxicity against Homo sapiens (human) H460 cells at 10 uM after 48 hr by propidium iodide-based fluorometric assay; assay type: functional; conditions: NCI-H460, 48 h, read-out: GI
# PANC-1 = assay: Cytotoxicity against Homo sapiens (human) PANC1 cells at 10 uM after 48 hr by propidium iodide-based fluorometric assay; assay type: functional; conditions: PANC-1, 48 h, read-out: GI
# [4] = biological target: T1, Beta-glucuronidase (Homo sapiens) (UniProt P08236); assay: Inhibition of beta-glucuronidase (unknown origin) using p-nitrophenyl-beta-D-glucopyranosiduronic acid as substrate at 1 uM after 30 min by spectrophotometric analysis
# T1 sequence (whole entry): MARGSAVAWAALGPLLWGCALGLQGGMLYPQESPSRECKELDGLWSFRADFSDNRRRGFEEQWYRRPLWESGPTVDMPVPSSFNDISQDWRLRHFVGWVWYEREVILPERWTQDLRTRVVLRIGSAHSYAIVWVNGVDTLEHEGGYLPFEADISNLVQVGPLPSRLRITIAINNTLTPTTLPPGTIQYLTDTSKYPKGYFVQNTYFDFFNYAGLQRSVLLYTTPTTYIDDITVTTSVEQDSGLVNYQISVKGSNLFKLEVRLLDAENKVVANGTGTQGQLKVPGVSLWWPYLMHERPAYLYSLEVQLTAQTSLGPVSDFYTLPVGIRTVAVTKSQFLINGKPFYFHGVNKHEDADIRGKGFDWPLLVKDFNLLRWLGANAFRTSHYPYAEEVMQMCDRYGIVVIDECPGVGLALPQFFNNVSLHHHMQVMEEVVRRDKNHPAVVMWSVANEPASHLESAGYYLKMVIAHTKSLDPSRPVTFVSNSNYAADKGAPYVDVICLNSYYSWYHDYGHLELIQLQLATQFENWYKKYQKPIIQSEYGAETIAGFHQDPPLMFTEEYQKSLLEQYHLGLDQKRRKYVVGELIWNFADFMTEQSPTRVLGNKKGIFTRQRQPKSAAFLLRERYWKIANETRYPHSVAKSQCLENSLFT
# Trypsin (Homo sapiens) = Trypsin (Homo sapiens) (UniProt P07477+P07478+P35030); assay: Inhibition of trypsin (unknown origin) using bovine serum albumin as substrate at 1 uM incubated for 20 min prior to substrate addition measured after 25 min by Lowry method; assay type: protein assay
# [5] = biological target: T2, Prostaglandin G/H synthase 2 (Ovis aries) (UniProt P79208); assay: Inhibition of Ovis aries (sheep) COX2 at 1 uM after 5 min by colorimetric analysis
# T2 sequence (whole entry): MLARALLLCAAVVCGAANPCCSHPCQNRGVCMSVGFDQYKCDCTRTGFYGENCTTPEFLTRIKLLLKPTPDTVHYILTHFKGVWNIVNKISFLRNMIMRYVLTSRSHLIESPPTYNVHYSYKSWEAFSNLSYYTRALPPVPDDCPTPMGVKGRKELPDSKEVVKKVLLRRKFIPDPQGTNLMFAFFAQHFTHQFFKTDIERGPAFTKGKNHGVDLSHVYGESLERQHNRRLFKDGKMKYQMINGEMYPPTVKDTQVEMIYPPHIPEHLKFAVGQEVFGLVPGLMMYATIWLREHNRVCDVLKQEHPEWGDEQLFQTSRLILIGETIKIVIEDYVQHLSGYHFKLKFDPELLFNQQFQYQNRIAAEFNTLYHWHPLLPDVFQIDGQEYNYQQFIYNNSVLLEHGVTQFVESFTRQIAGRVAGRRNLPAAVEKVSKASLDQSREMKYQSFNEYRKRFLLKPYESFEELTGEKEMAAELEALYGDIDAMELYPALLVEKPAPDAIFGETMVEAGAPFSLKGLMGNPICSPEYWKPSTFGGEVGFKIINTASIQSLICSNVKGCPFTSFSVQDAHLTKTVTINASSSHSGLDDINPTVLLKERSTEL
# [6] = Cytotoxicity against Homo sapiens (human) […] cells at 10 uM; assay type: cell-based
# THP-1 [7] = assay: Anti-inflammatory activity in Homo sapiens (human) THP1 cells assessed as inhibition of LPS-induced IL6 production at 10 uM incubated for 30 min prior to LPS-challenge measured after 24 hr by ELISA; assay type: functional
# THP-1 [8] = assay: Anti-inflammatory activity in Homo sapiens (human) THP1 cells assessed as inhibition of LPS-induced TNFalpha production at 10 uM incubated for 30 min prior to LPS-challenge measured after 24 hr by ELISA; assay type: functional
# [9] = biological target: T3, Prostaglandin G/H synthase 1 (Ovis aries) (UniProt P05979); conditions: at 1 µM;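 also: colorimetric read-out, measured after 5 min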
# T3 sequence (whole entry): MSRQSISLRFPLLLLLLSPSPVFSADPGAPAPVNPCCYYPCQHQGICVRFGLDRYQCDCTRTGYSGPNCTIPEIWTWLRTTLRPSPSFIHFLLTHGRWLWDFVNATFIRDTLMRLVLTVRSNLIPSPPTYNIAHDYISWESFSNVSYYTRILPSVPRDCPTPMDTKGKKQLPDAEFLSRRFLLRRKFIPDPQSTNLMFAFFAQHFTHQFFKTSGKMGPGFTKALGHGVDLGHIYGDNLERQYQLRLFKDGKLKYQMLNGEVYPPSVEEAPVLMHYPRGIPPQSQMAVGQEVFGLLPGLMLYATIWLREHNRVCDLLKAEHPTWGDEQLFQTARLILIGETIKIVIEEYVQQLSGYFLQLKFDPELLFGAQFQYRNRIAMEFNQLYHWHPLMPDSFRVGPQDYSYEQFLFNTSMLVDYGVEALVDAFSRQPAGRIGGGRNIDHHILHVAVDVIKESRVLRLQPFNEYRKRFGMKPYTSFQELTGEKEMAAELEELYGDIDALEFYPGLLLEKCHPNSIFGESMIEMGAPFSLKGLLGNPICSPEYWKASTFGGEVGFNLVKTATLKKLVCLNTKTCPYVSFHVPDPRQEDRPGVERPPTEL
# Description: Inhibition of Ovis aries (sheep) COX1 at 1 uM after 5 min by colorimetric analysis
# [10] = Antioxidant activity assessed as hydroxyl radical scavenging activity at 1 uM by spectrophotometric analysis; assay type: functional
SMILES,Activity [1],Activity [2],inhibition of growth at 10 µM (ACHN),inhibition of growth at 10 µM (HCT-116),inhibition of growth at 10 µM (Calu-1),inhibition of growth at 10 µM [3],inhibition of growth at 10 µM (PANC-1),inhibition [4],inhibition (Trypsin (Homo sapiens)),inhibition [5],Activity [6],inhibition at 10 µM (THP-1 [7]),inhibition at 10 µM (THP-1 [8]),inhibition [9],Activity [10]
COc1cc(OC)c(/C=C/C(=O)c2cccc(NC(=O)c3cccc(Cl)c3)c2)c(OC)c1Br,38.4%,45.3%,26%,28%,26%,17%,35%,78.2%,78.1%,86.5%,25%,64%,0%,53.9%,
COc1cc(OC)c(/C=C/C(=O)c2cccc(NC(=O)c3ccccc3F)c2)c(OC)c1Br,40.5%,42.9%,66%,66%,67%,52%,68%,74.2%,64.8%,79.3%,56%,96%,84%,44.8%,43.2%
COc1cc(OC)c(/C=C/C(=O)c2cccc(NC(=O)c3cccs3)c2)c(OC)c1Br,32.7%,35.3%,82%,98%,85%,72%,89%,44.7%,41.4%,55.4%,53%,96%,80%,27.8%,49.3%
COc1cc(OC)c(/C=C/C(=O)c2cccc(NC(=O)c3ccccc3C)c2)c(OC)c1Br,22.3%,31.1%,15%,21%,0%,32%,3%,29.7%,35.5%,43.7%,54%,95%,72%,31.5%,34.6%
COc1cc(OC)c(/C=C/C(=O)c2cccc(NC(=O)c3ccc(F)cc3)c2)c(OC)c1Br,43.9%,44.3%,69%,64%,60%,62%,66%,79.4%,72.9%,83.3%,49%,97%,85%,58.9%,33.4%
COc1cc(OC)c(/C=C/C(=O)c2cccc(NC(=O)c3ccc(C(C)(C)C)cc3)c2)c(OC)c1Br,36.8%,43.6%,35%,10%,32%,51%,37%,82.5%,69.6%,85.8%,56%,96%,83%,64.6%,27.3%
COc1cc(OC)c(/C=C/C(=O)c2cccc(NC(=O)c3ccccc3C(F)(F)F)c2)c(OC)c1Br,42.9%,44.6%,6%,6%,0%,11%,3%,76.9%,68.4%,87.9%,62%,95%,85%,39.9%,35.9%
COc1cc(OC)c(/C=C/C(=O)c2cccc(NC(=O)c3cccc(C)c3)c2)c(OC)c1Br,29.2%,36.7%,28%,30%,22%,32%,23%,66.9%,51.6%,48.2%,56%,97%,87%,24.2%,38.3%
O=C(O)c1ccccc1O,,,,,,,,24.8%,85%,,,,,,
COc1ccc(C(=O)Nc2cccc(C(=O)/C=C/c3c(OC)cc(OC)c(Br)c3OC)c2)cc1,26.9%,36.3%,97%,98%,99%,98%,99%,34%,39.6%,38%,65%,94%,63%,19.6%,21.2%
O=C(O)c1cc(O)c(O)c(O)c1,,92.4%,,,,,,,,,,,,,
CC(=O)Oc1ccccc1C(=O)O,,,,,,,,,,36.9%,,,,,
COc1cc(OC)c(/C=C/C(=O)c2cccc(NC(=O)c3cccc(C(F)(F)F)c3)c2)c(OC)c1Br,40.7%,45.7%,15%,6%,0%,4%,0%,81.4%,65.5%,89.2%,65%,97%,85%,48.9%,
